In PubChem BioAssay AID330 (DTP/NCI, 2004):
Where “and” joins values, the source holds several entries; their conditions need not be identical. Equal values may be shown once. Inconclusive results and toxic doses are left out.

Tested on: P388 leukemia ip, CD2F1 mice, survival T/C
Assay: NCI In Vivo Anticancer Drug Screen. Data for tumor model P388 Leukemia (intraperitoneal) in CD2F1 (CDF1) mice
Conditions: endpoint: median survival time, higher = longer survival
In short: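 Mice carrying the transplanted tumor received test compound or vehicle. Survival was recorded in each group, and the value is the treated-group measurement divided by that of the vehicle-treated control group.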

[1] = dose: 50.0 mg/kg/injection, schedule: Q01DX009 (ip), vehicle: Klucel (hydroxypropylcellulose) (HPC)
[2] = dose: 100.0 mg/kg/injection, schedule: Q01DX009 (ip), vehicle: Klucel (hydroxypropylcellulose) (HPC)
[3] = dose: 200.0 mg/kg/injection, schedule: Q01DX009 (ip), vehicle: Klucel (hydroxypropylcellulose) (HPC)
[4] = dose: 50.0 mg/kg/injection, schedule: Q01DX009 (ip), vehicle: saline
[5] = dose: 100.0 mg/kg/injection, schedule: Q01DX009 (ip), vehicle: saline
[6] = dose: 200.0 mg/kg/injection, schedule: Q01DX009 (ip), vehicle: saline
[7] = dose: 60.0 mg/kg/injection, schedule: Q01DX005 (ip), vehicle: saline with Tween-80
[8] = dose: 120.0 mg/kg/injection, schedule: Q01DX005 (ip), vehicle: saline with Tween-80
[9] = dose: 240.0 mg/kg/injection, schedule: Q01DX005 (ip), vehicle: saline with Tween-80
[10] = dose: 6.25 mg/kg/injection, schedule: Q01DX009 (ip), vehicle: saline with Tween-80
[11] = dose: 12.5 mg/kg/injection, schedule: Q01DX009 (ip), vehicle: saline with Tween-80
[12] = dose: 25.0 mg/kg/injection, schedule: Q01DX009 (ip), vehicle: Klucel (hydroxypropylcellulose) (HPC)
[13] = dose: 25.0 mg/kg/injection, schedule: Q01DX009 (ip), vehicle: saline with Tween-80
[14] = dose: 100.0 mg/kg/injection, schedule: Q01DX009 (ip), vehicle: saline with Tween-80
[15] = dose: 25.0 mg/kg/injection, schedule: Q01DX005 (ip), vehicle: saline with Tween-80
[16] = dose: 50.0 mg/kg/injection, schedule: Q01DX005 (ip), vehicle: saline
[17] = dose: 100.0 mg/kg/injection, schedule: Q01DX005 (ip), vehicle: saline
[18] = dose: 200.0 mg/kg/injection, schedule: Q01DX005 (ip), vehicle: saline
[19] = dose: 50.0 mg/kg/injection, schedule: Q01DX005 (ip), vehicle: Klucel (hydroxypropylcellulose) (HPC)

## CN(C)NC(=S)SCCC(=O)O
[1]
  T/C: 99 % of control
[2]
  T/C: 96 % of control
[3]
  T/C: 92 % of control

## O=C(O)c1cc(O)c(O)c(O)c1
dose: 14.0 mg/kg/injection, schedule: Q01DX009 (ip), vehicle: saline
  T/C: 105 % of control
dose: 22.0 mg/kg/injection, schedule: Q01DX009 (ip), vehicle: saline
  T/C: 100 % of control
dose: 35.0 mg/kg/injection, schedule: Q01DX009 (ip), vehicle: saline
  T/C: 95 % of control
[4]
  T/C: 103 % of control and 97 % of control
[5]
  T/C: 100 % of control and 101 % of control
dose: 100.0 mg/kg/injection, schedule: Q01DX009 (ip), vehicle: water
  T/C: 95 % of control
dose: 100.0 mg/kg/injection, schedule: Q04DX003 (ip), vehicle: Klucel (hydroxypropylcellulose) (HPC)
  T/C: 100 % of control
[6]
  T/C: 118 % of control and 96 % of control
dose: 200.0 mg/kg/injection, schedule: Q01DX009 (ip), vehicle: water
  T/C: 95 % of control
dose: 200.0 mg/kg/injection, schedule: Q04DX003 (ip), vehicle: Klucel (hydroxypropylcellulose) (HPC)
  T/C: 100 % of control
dose: 400.0 mg/kg/injection, schedule: Q01DX009 (ip), vehicle: saline
  T/C: 106 % of control and 111 % of control
dose: 400.0 mg/kg/injection, schedule: Q01DX009 (ip), vehicle: water
  T/C: 100 % of control
dose: 400.0 mg/kg/injection, schedule: Q04DX003 (ip), vehicle: Klucel (hydroxypropylcellulose) (HPC)
  T/C: 95 % of control
dose: 600.0 mg/kg/injection, schedule: Q01DX009 (ip), vehicle: saline
  T/C: 110 % of control and 111 % of control

## COC(=O)Cc1nc2ccccc2s1
[7]
  T/C: 102 % of control
[8]
  T/C: 104 % of control
[9]
  T/C: 103 % of control

## O=C(O)c1cc2c([N+](=O)[O-])cccc2[se]1
dose: 12.5 mg/kg/injection, schedule: Q01DX009 (ip), vehicle: saline
  T/C: 100 % of control
dose: 25.0 mg/kg/injection, schedule: Q01DX009 (ip), vehicle: saline
  T/C: 100 % of control
[4]
  T/C: 94 % of control and 97 % of control

## O=C1NC(=O)C2(CCCC2=Nc2ccc(Br)cc2)C2C=CN(Cc3ccccc3)C=C12 (stereo not drawn)
dose: 25.0 mg/kg/injection, schedule: Q04DX003 (ip), vehicle: saline
  T/C: 107 % of control
dose: 50.0 mg/kg/injection, schedule: Q04DX003 (ip), vehicle: saline
  T/C: 107 % of control
dose: 100.0 mg/kg/injection, schedule: Q04DX003 (ip), vehicle: saline
  T/C: 105 % of control and 110 % of control
dose: 200.0 mg/kg/injection, schedule: Q04DX003 (ip), vehicle: saline
  T/C: 107 % of control

## Nc1cc(-c2ccc(Cl)cc2)nn1-c1nnc2c(n1)[nH]c1ccccc12
dose: 100.0 mg/kg/injection, schedule: Q04DX002 (ip), vehicle: saline with Tween-80
  T/C: 92 % of control
dose: 200.0 mg/kg/injection, schedule: Q04DX002 (ip), vehicle: saline with Tween-80
  T/C: 94 % of control
dose: 400.0 mg/kg/injection, schedule: Q04DX002 (ip), vehicle: saline with Tween-80
  T/C: 99 % of control

## CCCCCCCCCCCC1C(C#N)C(=O)NC(=O)C1C#N (stereo not drawn)
[1]
  T/C: 103 % of control
[2]
  T/C: 94 % of control
[3]
  T/C: 100 % of control

## O=C(Nc1ccc(Br)cc1)ON1CCCCC1
[4]
  T/C: 91 % of control
[5]
  T/C: 87 % of control
[6]
  T/C: 104 % of control

## CSc1nc(N)c(NS(=O)(=O)c2ccc(NC(C)=O)cc2)c(=O)[nH]1
[7]
  T/C: 93 % of control
[8]
  T/C: 91 % of control
[9]
  T/C: 96 % of control

## O=C1NC(Cc2ccccc2)C(=O)NC1Cc1ccccc1 (stereo not drawn)
dose: 3.13 mg/kg/injection, schedule: Q01DX009 (ip), vehicle: saline with Tween-80
  T/C: 86 % of control
[10]
  T/C: 100 % of control
[11]
  T/C: 107 % of control
[12]
  T/C: 101 % of control
[13]
  T/C: 103 % of control
[1]
  T/C: 104 % of control

## COc1ccc(/C=C/c2ccnc3ccccc23)cc1
[10]
  T/C: 100 % of control
[11]
  T/C: 104 % of control
[13]
  T/C: 108 % of control

## CN(C)CCNc1ccc([N+](=O)[O-])c2sc3ccccc3c(=O)c12
[11]
  T/C: 114 % of control
[14]
  T/C: 103 % of control and 89 % of control

## COC(=O)C(Cc1ccc(N(CCCl)CCCl)cc1)N=NNc1nc[nH]c1C(N)=O (stereo not drawn)
dose: 12.5 mg/kg/injection, schedule: Q04DX003 (ip), vehicle: saline with Tween-80
  T/C: 163 % of control
dose: 25.0 mg/kg/injection, schedule: Q04DX003 (ip), vehicle: saline with Tween-80
  T/C: 168 % of control
dose: 33.0 mg/kg/injection, schedule: Q04DX003 (ip), vehicle: saline with Tween-80
  T/C: 172 % of control
dose: 50.0 mg/kg/injection, schedule: Q04DX003 (ip), vehicle: saline with Tween-80
  T/C: 181 % of control and 213 % of control
dose: 75.0 mg/kg/injection, schedule: Q04DX003 (ip), vehicle: saline with Tween-80
  T/C: 231 % of control

## CN(C)c1c(-c2ccccc2)nnc(-c2ccccc2)c1-c1ccccc1
dose: 100.0 mg/kg/injection, schedule: Q01DX001 (ip), vehicle: Klucel (hydroxypropylcellulose) (HPC)
  T/C: 103 % of control
dose: 200.0 mg/kg/injection, schedule: Q01DX001 (ip), vehicle: Klucel (hydroxypropylcellulose) (HPC)
  T/C: 100 % of control
dose: 400.0 mg/kg/injection, schedule: Q01DX001 (ip), vehicle: Klucel (hydroxypropylcellulose) (HPC)
  T/C: 101 % of control

## O=C(Nc1cccc2ccccc12)ON1C(=O)c2ccccc2C1=O
[15]
  T/C: 92 % of control
dose: 50.0 mg/kg/injection, schedule: Q01DX005 (ip), vehicle: saline with Tween-80
  T/C: 99 % of control and 113 % of control and 96 % of control
dose: 100.0 mg/kg/injection, schedule: Q01DX005 (ip), vehicle: saline with Tween-80
  T/C: 110 % of control and 119 % of control

## CCOC(=O)C1=CNc2ccccc2N=C1N
dose: 6.25 mg/kg/injection, schedule: Q01DX005 (ip), vehicle: saline with Tween-80
  T/C: 112 % of control
dose: 12.5 mg/kg/injection, schedule: Q01DX005 (ip), vehicle: saline with Tween-80
  T/C: 115 % of control
[15]
  T/C: 113 % of control

## O=S1(=O)C(c2ccc(F)cc2)=C(O)c2cc3ccccc3nc21
dose: 50.0 mg/kg/injection, schedule: Q01DX009 (ip), vehicle: saline with Tween-80
  T/C: 112 % of control
[14]
  T/C: 97 % of control

## OCCCCC1COC(CC2OCC(CCCCO)O2)O1 (stereo not drawn)
[16]
  T/C: 101 % of control
[17]
  T/C: 100 % of control
[18]
  T/C: 101 % of control

## Cc1nnc2c(=O)n(C)ccn12
dose: 25.0 mg/kg/injection, schedule: Q01DX001 (ip), vehicle: saline with Tween-80
  T/C: 95 % of control
dose: 50.0 mg/kg/injection, schedule: Q01DX001 (ip), vehicle: saline with Tween-80
  T/C: 95 % of control
dose: 100.0 mg/kg/injection, schedule: Q01DX001 (ip), vehicle: saline with Tween-80
  T/C: 97 % of control

## COc1ccc2c3c([nH]c2c1)[C@H](CC(C)(C)O)N1C(=O)[C@@H]2CCCN2C(=O)[C@]1(O)[C@H]3O
dose: 6.25 mg/kg/injection, schedule: Q01DX005 (ip), vehicle: Klucel (hydroxypropylcellulose) (HPC)
  T/C: 100 % of control
dose: 12.5 mg/kg/injection, schedule: Q01DX005 (ip), vehicle: Klucel (hydroxypropylcellulose) (HPC)
  T/C: 105 % of control
dose: 25.0 mg/kg/injection, schedule: Q01DX005 (ip), vehicle: Klucel (hydroxypropylcellulose) (HPC)
  T/C: 108 % of control
[19]
  T/C: 116 % of control

## CC(C)(C)C(=O)Oc1ccc(N=C(N)N)cc1
[16]
  T/C: 102 % of control
[17]
  T/C: 104 % of control
[18]
  T/C: 105 % of control

## CNS(=O)(=O)c1c([N+](=O)[O-])ncn1C
dose: 12.5 mg/kg/injection, schedule: Q01DX009 (ip), vehicle: Klucel (hydroxypropylcellulose) (HPC)
  T/C: 109 % of control
[12]
  T/C: 109 % of control and 115 % of control
[1]
  T/C: 113 % of control
[2]
  T/C: 123 % of control

## CC(C)Oc1ccc(C(=O)NS(=O)(=O)c2ccc(N=Nc3c(O)n(-c4ccccc4)n(-c4ccccc4)c3=O)cc2)cc1
[1]
  T/C: 94 % of control
[2]
  T/C: 91 % of control
[3]
  T/C: 93 % of control

## Cc1ncc(N)c(C(=O)O)n1
[19]
  T/C: 98 % of control
dose: 100.0 mg/kg/injection, schedule: Q01DX005 (ip), vehicle: Klucel (hydroxypropylcellulose) (HPC)
  T/C: 98 % of control
